Like-named read-outs stand apart in the source and are kept apart here.
What was measured:
[1] = amide bond, T3P, DCM, 2.0 h
[2] = target: T1, Mcl-1 protein (residues 171-323) (Homo sapiens, UniProt Q07820); experiment: Inhibition of Mcl-1 by fluorescence polarization (FP) competitive binding assay with FAM-Bid tracer; conditions: 2 nM FAM-Bid, 20 nM Mcl-1, 30 min
T1 construct: Tag-free Mcl-1 protein (residues 171-323) was used in the FP assay
In short: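 Tag-free Mcl-1 (20 nM) with 2 nM FAM-Bid peptide in PBS, 0.01% BGG, 0.01% Triton X-100, 5% DMSO, 30 min at room temperature. FP read at Ex 485/Em 528 nm. IC50 from 10-point curves normalised to DMSO and no-protein controls.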

OPM-2 cells = experiment: Cell viability assay (OPM-2 cells), CCK-8; format: cell-based; conditions: Homo sapiens, OPM-2, 24 h, 5% FBS
In short: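 OPM-2 myeloma cells (20000/well) exposed to serially diluted compound for 24 h at 37 °C, 5% CO2, then incubated 4 h with CCK-8 and read at 450 nm. Readings normalized to vehicle; IC50 from nonlinear regression.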

[3] = Pharmacokinetic studies in mice (IV and PO); format: in vivo; conditions: for MRT last: read-out: MRT0-last
Experimental: Administration: Mice in the IV group was dosed at 2 mg/kg (20% PEG 400+10% Cremophor EL+70% PBS 7.4) via tail vein injection (N=9). Mice in the PO group was dosed at 10 mg/kg (20% PEG 400+10% Cremophor EL+70% PBS 7.4) via oral gavage (N=9). All the mice were fasted overnight before dosing and had free access to food 4 hr post dosing.
Sampling: The animal was restrained manually at the designated time points (0.083, 0.25, 0.5, 1, 2, 4, 6, 8 and 24 hr), approximately 110 μL of blood sample was collected via retro-orbital puncture or cardiac puncture for terminal bleeding under the anesthesia with Isoflurane inhalation into K2EDTA tubes. The blood samples were maintained in wet ice first and centrifuged to obtain plasma (2000 g, 4° C., 5 min) within 15 minutes post sampling. All the plasma samples were stored at approximately −70° C. until analysis.

NCI-H929 cells = experiment: Cell viability assay (NCI-H929 cells), CCK-8; format: cell-based; conditions: Homo sapiens, NCI-H929, 24 h, 5% FBS
In short: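 NCI-H929 cells from ATCC were seeded at 20000 cells/well in 95 μL of culture medium in 96-well plates and grown for 4 hrs. Compounds, serially diluted in DMSO and further diluted in medium, were added as 5 μL, and cells were incubated for 24 hrs at 37° C. with 5% CO2. Viability was measured with CCK-8.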

[4] = system: MV-4-11, NCI-H929 and OPM-2 xenografts; experiment: In vivo xenograft studies (subcutaneous tumor models); conditions: tumor-bearing mice, as compared to AMG-176
Experimental: Female SCID mice at 4-6 weeks old were purchased from Shanghai Laboratory Animal Center (SLAC) and 1×10^7 MV-4-11 cells per mouse in 0.2 ml of PBS with 30% Matrigel were inoculated subcutaneously to the right flank of mice. Volumes of the tumor were estimated as V=LW^2/2, where L and W stand for tumor length and width. Mice with tumor at 50-150 mm^3 were randomized into treatment groups (5 mice per group) and started treatment. Compounds were administered at selected doses by p.o. or i.v. administration. The individual relative tumor volume (RTV) is calculated as following: RTV=Vt/V0, where Vt is the volume on each day of measurement and V0 is the volume on the initial day of treatment. Therapeutic effect of compound is expressed with relative tumor proliferation rate (T/C). The calculation formula is: T/C=mean RTV of the treated group/mean RTV of the control group. Treatments producing >20% lethality and/or 20% net body weight loss were considered toxic. Similar procedures were used in the for the NCI-H929 and OPM-2 xenograft experiments. See FIGS. 1, 3, 5, 7, 9, 11, and 13. Body weight changes in tumor-bearing mice were also measured. See FIGS. 2, 4, 6, 8, 10, 12, and 14.

T1 sequence (Q07820 171-323): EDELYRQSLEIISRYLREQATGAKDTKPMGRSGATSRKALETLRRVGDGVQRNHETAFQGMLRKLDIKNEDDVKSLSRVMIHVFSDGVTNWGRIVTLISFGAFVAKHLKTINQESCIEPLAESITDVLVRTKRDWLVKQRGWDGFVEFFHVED

Compound CC(=O)O[C@H]1C2=C[C@@H](C2)[C@H](C)[C@@H](C)S(=O)(=O)NC(=O)c2ccc3c(c2)N(C[C@@H]2CC[C@H]21)C[C@@]1(CCCc2c1ccc(Cl)c2F)CO3 has a ring closure, yield of all isomers ([1]; from CC(=O)O[C@@H](C1=C[C@H]([C@H](C)[C@@H](C)S(N)(=O)=O)C1)[C@@H]1CC[C@H]1CN1C[C@@]2(CCCc3c2ccc(Cl)c3F)COc2ccc(C(=O)O)cc21, TEA, 14.5 mM) of 100%.

Work on CO[C@@]1(C=O)C2=C[C@@H](C2)[C@H](C)[C@@H](C)S(=O)(=O)NC(=O)c2ccc3c(c2)N(C[C@@H]2CC[C@H]21)C[C@@]1(CCCc2c1ccc(Cl)c2F)CO3 yielded a ring closure, yield of all isomers ([1]; from CO[C@@](C=O)(C1=C[C@H]([C@H](C)[C@@H](C)S(N)(=O)=O)C1)[C@@H]1CC[C@H]1CN1C[C@@]2(CCCc3c2ccc(Cl)c3F)COc2ccc(C(=O)O)cc21, DIPEA, DMAP, 6.4 mM, 0.0 °C) of 89%.

For CO[C@H]1C2=CC(C2)[C@H](C)CS(=O)(=O)NC(=O)c2ccc3c(c2)N(C[C@@H]2CC[C@H]21)C[C@@]1(CCCc2c1ccc(Cl)c2F)CS3 (some centres unmarked), the ring closure, yield of all isomers ([1]; from CO[C@@H](C1=CC([C@H](C)CS(N)(=O)=O)C1)[C@@H]1CC[C@H]1CN1C[C@@]2(CCCc3c2ccc(Cl)c3F)CSc2ccc(C(=O)O)cc21, Et3N, DMAP, 10.6 mM, 25.0 °C) was 26.4%.

With CO[C@H]1C2=C[C@@H](C2)[C@H](C)[C@@H](C)S(=O)(=O)NC(=O)c2ccc3c(c2)N(C[C@@H]2CC[C@H]21)C[C@@]1(CCCc2c1ccc(Cl)c2F)CO3 (single isomer, unassigned) [Cpd. No. 17 (isomer 1)] the IC50 [2] was 0.0081 µM, the IC50 (OPM-2 cells) was 0.062 µM and the F ([3]; PO 10 mg/kg vs IV 2 mg/kg) was 92.9%. For the same compound, the AUC(0-inf) ([3]; mouse, plasma, IV 2 mg/kg) was 15.2 µg·h/mL, the AUC(0-t) ([3]; mouse, plasma, IV 2 mg/kg) was 13.9 µg·h/mL and the clearance ([3]; mouse, plasma, IV 2 mg/kg) was 0.131 L/h/kg. The half-life ([3]; mouse, plasma, IV 2 mg/kg) was 7 h, the Cmax ([3]; mouse, plasma, IV 2 mg/kg, read-out: C0/Cmax (C0)) was 0.997 µg/mL and the MRT last ([3]; mouse, plasma, IV 2 mg/kg) was 6.7 h. The Vd ([3]; mouse, plasma, IV 2 mg/kg, read-out: Vss) was 1.2 L/kg, the AUC(0-inf) ([3]; mouse, plasma, PO 10 mg/kg) was 70.7 µg·h/mL and the AUC(0-t) ([3]; mouse, plasma, PO 10 mg/kg) was 56 µg·h/mL. For the same compound, the Tmax ([3]; mouse, plasma, PO 10 mg/kg) was 4 h, the half-life ([3]; mouse, plasma, PO 10 mg/kg) was 10.6 h and the Cmax ([3]; mouse, plasma, PO 10 mg/kg, read-out: C0/Cmax (Cmax)) was 4.35 µg/mL. For the same compound, the MRT last ([3]; mouse, plasma, PO 10 mg/kg) was 8.3 h, the Vd/F ([3]; mouse, plasma, PO 10 mg/kg, read-out: Vz/F) was 2.2 L/kg and the IC50 (NCI-H929 cells) was 0.016 µM. For the same compound, the “body weight change (toxicity to the animals)” value [4] was “less body weight change” and the tumor growth inhibition ([4]; p.o. or i.v.) was “surprisingly better tumor growth inhibition”.

Source: patent US11498928B2, “Macrocyclic spiroethers as Mcl-1 inhibitors” (ASCENTAGE PHARMA (SUZHOU) CO., LTD., priority 2019, dated 2022)
